Marks after values point to notes of the source that are not given here.
Key:
[1] = system: heat shock protein Hspa8 and Hspa1a; test: Example 3 in vivo pharmacodynamic study via oral dosing: RT-qPCR of brain; details: mouse brain, 25 mg/kg oral once daily 4 days; for Relative expression of Hspa1a normalized with Group 1 / Relative expression of Hspa8 normalized with Group 1: normalized to Actb
Experimental: Wildtype mice were dosed orally at 25 mg/kg (6aS)-6-methyl-5,6,6a,7-tetrahydro-4H-dibenzo[de,g]quinoline-10,11-diol for 4 days once daily.
A total of 36 mice were randomly divided into twelve groups. Each group had 3 mice. After oral administration of (6aS)-6-methyl-5,6,6a,7-tetrahydro-4H-dibenzo[de,g]quinoline-10,11-diol once a day for 4 consecutive days, brains of mice in each group were sampled individually at the time point of 0, 5, 15, 30 min, 1, 2, 3, 4, 8, 12, 24 and 48 hour post the last oral dose. A quarter of whole brain from each mouse in every time group underwent a real-time quantitative polymerase chain reaction (RT-qPCR) analysis. Before RNA extraction, brain tissues were frozen immediately in liquid nitrogen, and were transferred to −80° C. until further use.
Total RNA from 36 frozen brain samples were extracted using Trizol reagent (Invitrogen, Carlsbad, Calif., USA, 15596018) according to the manufacturer's instructions. After extraction, the integrity of total RNA was be checked by 1% agarose gel staining with ethidium bromide as well as by nanodrop (Thermo Fisher, USA). Then, 2 μg of total RNA was used for reverse transcription by M-MLV Reverse Transcriptase (Invitrogen, 28025-013) with gDNA removal (NEB, M0303S). qRT-PCR analysis was performed using LightCycler® 480 Probe Master (4887301001, Roche, Basel, Switzerland) and the Roche LightCycler480 (Roche). The data from triplicate experiments were subjected to statistical analysis and the target genes were normalized against the levels of actin beta (Actb) mRNA. The primers are listed as follows: […]

HSF1 regulated genes [2] = test: Example 1 in vivo pharmacodynamic study via subcutaneous dosing: expression of genes upregulated by HSF1 activation; design: species or system mouse
Experimental: (§1) Wildtype mice (3 per group) were dosed subcutaneously at 0, 0.5, 1.5, 5 and 10 mg/kg (6aS)-6-methyl-5,6,6a,7-tetrahydro-4H-dibenzo[de,g]quinoline-10,11-diol hydrochloride for 7 days once daily. One animal in the 10 mg/kg dosing group was actually dosed 15 mg/kg on Day 1. To prepare the dosing solutions, (6aS)-6-methyl-5,6,6a,7-tetrahydro-4H-dibenzo[de,g]quinoline-10,11-diol was pre-weighed into bijous and stored in foil.

TDP-43^Q331K mouse model = test: Example 4 accelerating rotarod test; format: in vivo; details: TDP-43^Q331K mice, 5 mg/kg once daily s.c., one time point (19 weeks of age)
Experimental: Following genotyping, transgenic females were block randomized into three different dosing groups: vehicle once daily, 2.5 mg/kg (6aS)-6-methyl-5,6,6a,7-tetrahydro-4H-dibenzo[de,g]quinoline-10,11-diol twice daily and 5 mg/kg (6aS)-6-methyl-5,6,6a,7-tetrahydro-4H-dibenzo[de,g]quinoline-10,11-diol once daily. The doses were selected based on results of previous internal studies. Animals were weighed daily before dosing and dosed subcutaneously at 10 ml/kg with a solution of 0.5 mg/ml (6aS)-6-methyl-5,6,6a,7-tetrahydro-4H-dibenzo[de,g]quinoline-10,11-diol for the 5 mg/kg dose and 0.25 mg/ml for the 2.5 mg/kg dose. Where animals were dosed twice a day, the doses were at least 6 hours apart and the dosing solution was freshly made for the second dose of the day.
The study was designed with two main cohorts of mice. One cohort was dosed from 25 days of age until 6 months of age and mice had behavioral testing throughout the study and consisted of 14 mice per group. […]
Mice were tested on the accelerating rotarod (Jones & Roberts for mice, model 7650) once a week from 40 days of age until the end of the study. […] Mice are placed on the rotarod and the time taken to fall from the rotarod (latency to fall) is recorded. For each day of testing, each mouse was tested twice on the rotarod with a small rest in between trials and the best result from the two trials is recorded. […]

HSF1 regulated genes [3] = test: Example 2 in vivo pharmacodynamic study via subcutaneous dosing, cortex: expression of genes upregulated by HSF1 activation; design: species or system mouse; details: for Dlg4 gene induction / Dnajba gene induction / Hspa1a gene induction / Hspa8 gene induction / Syn1 gene induction: wildtype mouse cortex, 5 mg/kg s.c. once daily 7 days, compared to Gapdh
Experimental: as §1

[4] = Group 3 (15 min) post last dose
[5] = Group 4 (30 min) post last dose
[6] = Group 10 (12 Hr) post last dose
[7] = Group 11 (24 Hr) post last dose
[8] = Group 12 (48 Hr) post last dose
[9] = wildtype mice, 1.5 mg/kg s.c. once daily 7 days, 24 hours post final dose, compared to Actb
[10] = wildtype mice, 5 mg/kg s.c. once daily 7 days, 24 hours post final dose, compared to Gapdh
[11] = wildtype mice, 10 mg/kg s.c. once daily 7 days, 6 hours post final dose, compared to Actb
[12] = wildtype mice, 10 mg/kg s.c. once daily 7 days, 6 hours post final dose, compared to Gapdh

`CN1CCc2cccc3c2[C@@H]1Cc1ccc(O)c(O)c1-3` [(6aS)-6-methyl-5,6,6a,7-tetrahydro-4H-dibenzo[de,g]quinoline-10,11-diol] was tested. Which “Relative expression of Hspa1a normalized with Group 1” value ([1]; Group 1 (0 min) post last dose) did it give?
The value was 1.00.

What about the “Relative expression of Hspa8 normalized with Group 1” value ([1]; Group 1 (0 min) post last dose) of the same molecule?
Its value is 1.00.

And the “Relative expression of Hspa1a normalized with Group 1” value ([1]; Group 2 (5 min) post last dose)?
Its value is 0.96.

And the “Relative expression of Hspa8 normalized with Group 1” value ([1]; Group 2 (5 min) post last dose)?
The value was 0.85.

And the “Relative expression of Hspa1a normalized with Group 1” value [1, 4]?
The value was 1.05.

And the “Relative expression of Hspa8 normalized with Group 1” value [1, 4]?
The value was 0.89.

And the “Relative expression of Hspa1a normalized with Group 1” value [1, 5]?
Its value is 1.06.

And the “Relative expression of Hspa8 normalized with Group 1” value [1, 5]?
Its value is 0.91.

What about the “Relative expression of Hspa1a normalized with Group 1” value ([1]; Group 5 (1 Hr) post last dose) of the same molecule?
The value was 0.90.

What about the “Relative expression of Hspa8 normalized with Group 1” value ([1]; Group 5 (1 Hr) post last dose) of the same molecule?
The value was 0.92.

And the “Relative expression of Hspa1a normalized with Group 1” value ([1]; Group 6 (2 Hr) post last dose)?
Its value is 1.02.

What about the “Relative expression of Hspa8 normalized with Group 1” value ([1]; Group 6 (2 Hr) post last dose) of the same molecule?
Its value is 0.96.

What about the “Relative expression of Hspa1a normalized with Group 1” value ([1]; Group 7 (3 Hr) post last dose) of the same molecule?
Its value is 1.10.

And the “Relative expression of Hspa8 normalized with Group 1” value ([1]; Group 7 (3 Hr) post last dose)?
Its value is 0.96.

What about the “Relative expression of Hspa1a normalized with Group 1” value ([1]; Group 8 (4 Hr) post last dose) of the same molecule?
The value was 1.09.

And the “Relative expression of Hspa8 normalized with Group 1” value ([1]; Group 8 (4 Hr) post last dose)?
Its value is 1.01.

What about the “Relative expression of Hspa1a normalized with Group 1” value ([1]; Group 9 (8 Hr) post last dose) of the same molecule?
The value was 2.25*.

And the “Relative expression of Hspa8 normalized with Group 1” value ([1]; Group 9 (8 Hr) post last dose)?
The value was 1.11.

And the “Relative expression of Hspa1a normalized with Group 1” value [1, 6]?
The value was 1.33*.

What about the “Relative expression of Hspa8 normalized with Group 1” value [1, 6] of the same molecule?
Its value is 1.17**.

And the “Relative expression of Hspa1a normalized with Group 1” value [1, 7]?
The value was 1.04.

And the “Relative expression of Hspa8 normalized with Group 1” value [1, 7]?
The value was 1.14**.

And the “Relative expression of Hspa1a normalized with Group 1” value [1, 8]?
The value was 1.04.

What about the “Relative expression of Hspa8 normalized with Group 1” value [1, 8] of the same molecule?
The value was 0.99.

And the “Hspa1a mRNA level compared with group 1 (in words)” value ([1]; group 9 and 10 (8 Hr, 12 Hr))?
The value was “significant increase”.

And the “mRNA expression levels of Hspa8 compared with group 1 (in words)” value ([1]; group 10 and 11 (12 Hr, 24 Hr))?
Its value is “slight increase”.

What about the “group in which Hspa1a mRNA level reached a peak” value ([1]; group 9 = 8 Hr post last dose) of the same molecule?
The value was “group 9”.

What about the “dose at which HSF1 regulated genes are activated (Hspa1a and Dnajb1 gene inductions)” value (HSF1 regulated genes [2]; mice, s.c. once daily 7 days, Example 1) of the same molecule?
The value was at least 0.5 mg/kg.

And the Hspa1a gene induction (HSF1 regulated genes [2]; [9])?
The Hspa1a gene induction was 2.3 fold.

And the Pgc1a gene induction (HSF1 regulated genes [2]; [9])?
Its Pgc1a gene induction is 1.7 fold.

And the Hspa1a gene induction (HSF1 regulated genes [2]; [10])?
Its Hspa1a gene induction is 2.3 fold.

What about the Pgc1a gene induction (HSF1 regulated genes [2]; [10]) of the same molecule?
Its Pgc1a gene induction is 1.7 fold.

And the Hspa1a gene induction (HSF1 regulated genes [2]; [11])?
Its Hspa1a gene induction is 2.0 fold.

And the Pgc1a gene induction (HSF1 regulated genes [2]; [11])?
The Pgc1a gene induction was 1.5 fold.

And the Dnajb1 gene induction (HSF1 regulated genes [2]; [12])?
The Dnajb1 gene induction was 1.3 fold.

And the Hspa1a gene induction (HSF1 regulated genes [2]; [12])?
Its Hspa1a gene induction is 2.2 fold.

What about the Pgc1a gene induction (HSF1 regulated genes [2]; wildtype mice, repeated dose of 5 mg/kg s.c. once daily 7 days, compared to Gapdh (6 hours post final dose per preceding sentence)) of the same molecule?
The Pgc1a gene induction was 1.8 fold.

And the “rotarod performance (latency to fall) compared to vehicle dosed animals” value (TDP-43^Q331K mouse model)?
The value was “significant increase”.

What about the “dose at which HSF1 regulated genes are activated” value (HSF1 regulated genes [3]; mice, s.c. once daily 7 days, Example 2) of the same molecule?
Its value is at least 0.5 mg/kg.

What about the Dlg4 gene induction (HSF1 regulated genes [3]; 6 hours post final dose) of the same molecule?
The Dlg4 gene induction was 1.46 fold.

And the Dnajba gene induction (HSF1 regulated genes [3]; 6 hours post final dose)?
Its Dnajba gene induction is 1.31 fold.

What about the Hspa1a gene induction (HSF1 regulated genes [3]; 6 hours post final dose) of the same molecule?
Its Hspa1a gene induction is 1.84 fold.

What about the Hspa8 gene induction (HSF1 regulated genes [3]; 6 hours post final dose) of the same molecule?
Its Hspa8 gene induction is 1.56 fold.

And the Syn1 gene induction (HSF1 regulated genes [3]; 6 hours post final dose)?
Its Syn1 gene induction is 1.68 fold.

And the Dlg4 gene induction (HSF1 regulated genes [3]; 24 hours post final dose)?
The Dlg4 gene induction was 0.90 fold.

And the Dnajba gene induction (HSF1 regulated genes [3]; 24 hours post final dose)?
Its Dnajba gene induction is 1.17 fold.

And the Hspa1a gene induction (HSF1 regulated genes [3]; 24 hours post final dose)?
The Hspa1a gene induction was 2.25 fold.

What about the Hspa8 gene induction (HSF1 regulated genes [3]; 24 hours post final dose) of the same molecule?
Its Hspa8 gene induction is 2.62 fold.

And the Syn1 gene induction (HSF1 regulated genes [3]; 24 hours post final dose)?
Its Syn1 gene induction is 1.47 fold.
